Results published in ChEMBL document CHEMBL1127015, “Centrally acting serotonergic and dopaminergic agents. 1. Synthesis and structure-activity relationships of 2,3,3a,4,5,9b-hexahydro-1H-benz[e]indole derivatives” (J Med Chem, 1993).
Values joined by “and” are separate entries in the source; they are usually repeats but may differ in a detail not shown here. Identical values can stand only once.

Columns and labels:
D(2) dopamine receptor [1] = target: T1, D(2) dopamine receptor (Homo sapiens, UniProt P14416); assay: Binding affinity against [3H]U-86,170-labeled dopamine receptor D2 in cloned CHO cells; format: cell-based
T1 sequence (P14416 whole entry): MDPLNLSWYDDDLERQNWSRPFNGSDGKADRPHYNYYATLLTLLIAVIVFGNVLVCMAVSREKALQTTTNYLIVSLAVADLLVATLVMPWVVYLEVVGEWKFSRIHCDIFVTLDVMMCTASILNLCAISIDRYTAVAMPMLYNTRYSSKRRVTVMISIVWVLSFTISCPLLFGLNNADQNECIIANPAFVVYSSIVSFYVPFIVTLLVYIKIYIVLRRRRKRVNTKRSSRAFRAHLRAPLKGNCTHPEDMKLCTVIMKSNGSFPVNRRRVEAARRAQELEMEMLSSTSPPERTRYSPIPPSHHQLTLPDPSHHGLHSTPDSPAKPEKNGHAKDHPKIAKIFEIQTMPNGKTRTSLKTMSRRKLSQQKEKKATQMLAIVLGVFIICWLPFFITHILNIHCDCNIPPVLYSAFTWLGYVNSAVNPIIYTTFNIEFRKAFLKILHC

Mus musculus [2] = assay: Effective dose on hypothermia in mouse when administered through peroral route; format: functional; settings: po
Mus musculus [3] = assay: Maximum decrease in temperature when compound is administered subcutaneously; format: functional
D(2) dopamine receptor [4] = target: T2, D(2) dopamine receptor (Rattus norvegicus, UniProt P61169); assay: Inhibitory concentration against [3H]raclopride-labeled dopamine receptor D2 in rat striatum; format: tissue-based
T2 sequence (P61169 whole entry): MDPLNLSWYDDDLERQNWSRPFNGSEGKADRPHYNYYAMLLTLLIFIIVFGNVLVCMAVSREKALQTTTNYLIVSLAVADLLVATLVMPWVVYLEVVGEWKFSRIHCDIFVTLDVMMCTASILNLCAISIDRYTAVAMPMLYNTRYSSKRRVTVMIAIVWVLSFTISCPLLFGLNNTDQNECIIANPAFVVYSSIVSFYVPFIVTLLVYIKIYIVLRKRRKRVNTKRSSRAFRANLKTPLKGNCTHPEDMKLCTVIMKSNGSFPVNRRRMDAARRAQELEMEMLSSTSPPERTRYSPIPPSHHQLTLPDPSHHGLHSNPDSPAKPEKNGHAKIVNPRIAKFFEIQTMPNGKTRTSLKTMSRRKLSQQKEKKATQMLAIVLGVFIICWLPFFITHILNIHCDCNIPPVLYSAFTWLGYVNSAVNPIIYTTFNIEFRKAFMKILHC

Mus musculus [5] = assay: Maximum decrease in temperature when compound is administered through peroral route; format: functional
Mus musculus [6] = assay: Effective dose on hypothermia in mouse when administered subcutaneously; format: functional; settings: sc
Rattus norvegicus [7] = assay: Inhibition of firing rates of dopaminergic neurons in the substantia nigra pars compacta by intravenous injection in rats.; format: functional
D(2) dopamine receptor [8] = target: T1, D(2) dopamine receptor; assay: Intrinsic activity from GTP shift using membranes from CHO cells transfected with mammalian dopamine receptor D2.; format: cell membranes
D(2) dopamine receptor [9] = target: T2, D(2) dopamine receptor; assay: Binding affinity against [3H]raclopride-labeled dopamine receptor D2 in rat striatum.; format: tissue-based
Mus musculus [10] = assay: Antagonism of apomorphine for 0-10 minutes in reserpinized mice when a dose of 3.6 micro mol/kg is administered intraperitoneally; format: functional
Mus musculus [11] = assay: Increase in locomotor activity in reserpinized mice following 0.4 umol/kg i.p.; format: functional
Mus musculus [12] = assay: Antagonism of apomorphine for 10-20 minutes in reserpinized mice when a dose of 36 micro mol/kg is administered intraperitoneally; format: functional
Rattus norvegicus [13] = species: Rattus norvegicus; assay: Effect on the synthesis rates of serotonin (5-HTP accumulation) in the rat ventral limbic brain region at 10.7uMkg.; format: functional, Limbic system
Mus musculus [14] = assay: Antagonism of apomorphine effects for 10-20 minutes in reserpinized mice following 0.4 umol/kg i.p.; format: functional
Mus musculus [15] = assay: Antagonism of apomorphine for 0-10 minutes in reserpinized mice when a dose of 36 micro mol/kg is administered intraperitoneally; format: functional
Mus musculus [16] = assay: Antagonism of apomorphine effects in reserpinized mice following 0.4 umol/kg i.p.; format: functional
Mus musculus [17] = assay: Ability to stimulate dopaminergic systems by effect on locomotor activity in reserpinized mice when a dose of 3.6 micro mol/kg is administered intraperitoneally; format: functional
Mus musculus [18] = assay: Antagonism of apomorphine in reserpinized mice when a dose of 36 micro mol/kg is administered intraperitoneally; format: functional
Mus musculus [19] = assay: Antagonism of apomorphine effects for 0-10 minutes in reserpinized mice following 0.4 umol/kg i.p.; format: functional; design: unit not given beside the values
Felis catus [20] = assay: Maximum decrease of sympathetic nerve activity (SND) in anesthetized cat has been expressed as percent control; format: functional; design: scale not given: the % may be the effect or the level left
Mus musculus [21] = assay: Antagonism of apomorphine in reserpinized mice when a dose of 3.6 micro mol/kg is administered intraperitoneally; format: functional
Felis catus [22] = assay: Maximum decrease of arterial blood pressure at sympathetic nerve activity (SND) in anesthetized cat has been observed following 1 mg/kg dose; format: functional; design: scale not given: the % may be the effect or the level left
Mus musculus [23] = assay: Ability to stimulate dopaminergic systems by effect on locomotor activity in reserpinized mice when a dose of 36 micro mol/kg is administered intraperitoneally; format: functional
Mus musculus [24] = assay: Antagonism of apomorphine for 10-20 minutes in reserpinized mice when a dose of 3.6 micro mol/kg is administered intraperitoneally; format: functional
Rattus norvegicus [25] = species: Rattus norvegicus; assay: Effect on the synthesis rates of serotonin (5-HTP accumulation) in the rat ventral limbic brain region at 10.7uMkg. value as percent change from the control; format: functional, Limbic system
Felis catus [26] = assay: Effective dose at which the sympathetic nerve activity (SND) has been reduced to 50% of the pretreatment value in anesthetized cat; format: functional
Felis catus [27] = species: Felis catus; assay: Percent of arterial blood pressure at sympathetic nerve activity (SND) dose value was determined; format: functional
Felis catus [28] = assay: Maximum decrease of sympathetic nerve activity (SND) in anesthetized cat; format: functional; design: scale not given: the % may be the effect or the level left

`COc1cccc2c1C1CCN(CCc3ccccc3)[C@@H]1CC2` (some centres undefined) showed a Ki (D(2) dopamine receptor [1]) greater than 0.339 µM.

`CCCN1CC[C@H]2c3c(O)cccc3CC[C@H]21` showed an ED50 (Mus musculus [2]) of 4.9 µmol/kg, a Max temperature decrease (Mus musculus [3]) of 5.5 and an IC50 (D(2) dopamine receptor [4]) greater than 1 µM. It also gave a Max temperature decrease (Mus musculus [5]) of 7.3 and an ED50 (Mus musculus [6]) of 0.3 µmol/kg.

`C=CCN1CC[C@@H]2c3cccc(OC)c3CC[C@@H]21` was tested, and the ED50 (Rattus norvegicus [7]; Rattus norvegicus, Substantia nigra pars compacta, iv, read-out: ED50) was greater than 3.6 µmol/kg.

`CCCN1CC[C@@H]2c3c(O)cccc3CC[C@@H]21` gave an ED50 (Mus musculus [2]) of 21 µmol/kg, a Max temperature decrease (Mus musculus [3]) of 8.5 and an IC50 (D(2) dopamine receptor [4]) greater than 1 µM. The Intrinsic activity (D(2) dopamine receptor [8]) was 0%, the Max temperature decrease (Mus musculus [5]) was 5.5 and the ED50 (Mus musculus [6]) was 0.05 µmol/kg.

For `CCCN1CC[C@@H]2c3c(cccc3OC)CC[C@@H]21`, the Ki (D(2) dopamine receptor [9]) was greater than 1 µM.

`C=CCN1CCC2c3cccc(OC)c3CC[C@H]21` (mixture of isomers) was tested, and the Locomotor activity (Mus musculus [10]) was 112, the Locomotor activity (Mus musculus [11]) was 15 and the Locomotor activity (Mus musculus [12]) was 17. It also gave a Control (Rattus norvegicus [13]) of 147%, a Locomotor activity (Mus musculus [14]) of 92 and a Locomotor activity (Mus musculus [15]) of 33. For the same compound, the Locomotor activity (Mus musculus [16]) was 73, the Locomotor activity (Mus musculus [17]) was 9 and the Locomotor activity (Mus musculus [18]) was 1. For the same compound, the Locomotor activity (Mus musculus [19]) was 91, the ED50 (Rattus norvegicus [7]) was 0.42 µM/kg and 0.88 µM/kg and the Intrinsic activity (D(2) dopamine receptor [8]) was 0%. For the same compound, the Ki (D(2) dopamine receptor [9]) was 0.042 µM, the Control (Felis catus [20]) was 132% and the Locomotor activity (Mus musculus [21]) was 27. For the same compound, the Control (Felis catus [22]) was 98%, the Locomotor activity (Mus musculus [23]) was 9 and the ED50 (Mus musculus [6]) was greater than 107 µmol/kg. For the same compound, the Locomotor activity (Mus musculus [24]) was 59 and the Control (Rattus norvegicus [25]) was -4%.

`CCCN1[C@@H]2CCc3cccc(OC)c3C2C[C@@H]1C` (mixture of isomers) gave an ED50 (Felis catus [26]) of 0.17 µmol/kg, a BP (Felis catus [27]) of 42% and an ED50 (Mus musculus [2]) of 338 µmol/kg. The Max temperature decrease (Mus musculus [3]) was 6.8, the Control (Felis catus [28]) was 82% and the IC50 (D(2) dopamine receptor [4]) was greater than 1 µM. The Max temperature decrease (Mus musculus [5]) was 3, the Control (Felis catus [22]) was 73% and the ED50 (Mus musculus [6]) was 14 µmol/kg.

With `CCCN1CCC2c3c(cccc3OC)CCC21` (racemic) the ED50 (Mus musculus [2]) was 109 µmol/kg, the Max temperature decrease (Mus musculus [3]) was 1.5 and the Ki (D(2) dopamine receptor [9]) was greater than 1 µM. For the same compound, the Max temperature decrease (Mus musculus [5]) was 6 and the ED50 (Mus musculus [6]) was 20 µmol/kg.

`C=CCN1CC[C@@H]2c3cccc(OC)c3CC[C@H]21` (racemic) showed a Locomotor activity (Mus musculus [10]) of 76, a Locomotor activity (Mus musculus [11]) of 4 and a Locomotor activity (Mus musculus [12]) of 54. The Control (Rattus norvegicus [13]) was -51%, the Max temperature decrease (Mus musculus [3]) was 3.4 and the Locomotor activity (Mus musculus [14]) was 106. The Locomotor activity (Mus musculus [15]) was 42, the Locomotor activity (Mus musculus [16]) was 156 and the Locomotor activity (Mus musculus [17]) was 81. For the same compound, the Locomotor activity (Mus musculus [18]) was 13, the Locomotor activity (Mus musculus [19]) was 78 and the Intrinsic activity (D(2) dopamine receptor [8]) was 0%. It also gave a Ki (D(2) dopamine receptor [9]) of 0.099 µM, a Control (Felis catus [20]) of 105% and a Locomotor activity (Mus musculus [21]) of 142. For the same compound, the Control (Felis catus [22]) was 61%, the Locomotor activity (Mus musculus [23]) was 49 and the ED50 (Mus musculus [6]) was greater than 107 µmol/kg. For the same compound, the Locomotor activity (Mus musculus [24]) was 116 and the Control (Rattus norvegicus [25]) was 95%.

With `COc1cccc2c1CC[C@@H]1[C@@H]2CCN1CC1CC1` (racemic) the Ki (D(2) dopamine receptor [9]) was greater than 10 µM.
